Measured values: patent US9134313B2, “Method of detecting colorectal cancer of stages 0 to I” (Tokyo Metropolitan Organization For Medical Research, priority 2003, dated 2015)

Test system: anti-DiAcSpm antibody Code No. NZW 2
Experiment: Cross-reactivity of affinity-purified anti-DiAcSpm antibody with urinary DiAcSpm analogues
Type: binding, rabbit
Settings: for Cross-reactivity (1)x(2) %: cross-reactivity multiplied by abundance in urine: interference on urinary DiAcSpm determination; for KiDiAcSpm/Ki"s"(%) (1): cross-reactivity of antibody NZW 2 with each polyamine, DiAcSpm = 100
Text: The antibody of the invention has one or both of the following properties: (i) its cross-reactivity with N^1-AcSpd (which is present in urine as a DiAcSpm analogue in an amount about 30-times greater than DiAcSpm) is 0.1% or less; (ii) total interference on the measurement results caused by its cross-reaction with DiAcSpm analogues present in urine is 5% or less. The numerical value mentioned in (i) above is a value showing the nature of the antibody. The numerical value mentioned in (ii) above is a value obtained by multiplying cross-reactivity itself by the abundance of these analogues in urine; this value can be an indicator showing how much interference these analogues would give actually on the quantitative determination of DiAcSpm.
Step-wise affinity purification was carried out to examine whether specific antibodies with sufficient purity applicable to a urinary DiAcSpm measuring system can be obtained. The affinity purification was carried out step-wise based on the method of Kawakita et al. (Hiramatsu, K. et al., J. Biochem., 124, 231-236 (1998)), using DiAcSpm column and DiSpd column prepared by derivatizing carboxy-Toyopearl with AcSpm and N8-AcSpd (FIG. 3).
Further, the total interference on the measurement results caused by the cross-reaction of this antibody with DiAcSpm analogues present in urine was 2.9%; thus, cross-reactivity of 5% or less was achieved (FIG. 4, Table 3).

| KiDiAcSpm/Ki"s"(%) (1) | Compound | Cross-reactivity (1)x(2) % | KiDiAcSpm/Ki"s"(%) (1) (listed as N^1-AcSpd) |
| --- | --- | --- | --- |
| 100% | CC(=O)NCCCNCCCCNCCCNC(C)=O [DiAcSpm, N^1,N^12-diacetylspermine] | 100% |  |
| 0.032% | CC(=O)NCCCCNCCCNC(C)=O [DiAcSpd, N^1,N^8-diacetylspermidine] | 0.094% |  |

The next lines start with the compound.

| Compound | KiDiAcSpm/Ki"s"(%) (1) | Cross-reactivity (1)x(2) % | KiDiAcSpm/Ki"s"(%) (1) (listed as N^1-AcSpd) |
| --- | --- | --- | --- |
| CC(=O)NCCCNCCCCNCCCN [AcSpm, monoacetylspermine] | 0.418% | 0.131% |  |
| CC(=O)NCCCCNCCCN [N8-AcSpd, N^8-Ac-Spermidine] | 0.001% | 0.024% |  |
| CC(=O)NCCCNCCCCN [N1-AcSpd, N^1-Ac-Spermidine] | 0.100% | 2.65% | ≤ 0.1% |
